According to patent publication US20260083691A1, “TREATING CANCERS WITH COMBINATIONS OF ANTI-CD20 ANTIBODY AND ACYLFULVENES” (Lantern Pharma Inc., priority 2023, published 2026):

Columns and labels:
[1] = system: OCLLY1-derived tumor xenografts; assay: LP-284 alone and with rituximab in OCLLY1 DLBCL/HGBL-MYC/BCL2 tumor xenografts in mice; type: in vivo; settings: for tumor growth inhibition (TGI): day 24, NOD.SCID mice
Protocol: HRD genomic scars from 107 B-NHL patients in the Pan-Cancer Analysis of Whole Genomes (PCAWG) study were tested. At least 10% of B-NHL patients were likely HRD+, with approximately 90% of these cases being diffuse large B-cell lymphoma (DLBCL). […] The calculated bliss synergy score between LP-284 and Rituximab on day 24 is 10, indicating synergy.
LP-284's efficacy in DLBCL/HGBL-MYC/BCL2 xenograft models was evaluated. LP-284, vehicle (saline), and Rituximab were administered intravenously in OCLLY1-derived tumor xenografts in mice. All vehicle-treated mice were sacrificed by day 24 due to excessive tumor size.
LP-284 was tested for anti-tumor efficacy as a monotherapy and in combination with rituximab in OCI-LY 1 DLBCL/HGBL-MYC/BCL2 cell line-derived tumor xenografts in mice. Methods: OCLLY1 cells were implanted subcutaneously in NOD.SCID mice. The following treatments were initiated when the tumors reached a volume of >100 mm3: vehicle (saline, administered intravenously on days 1, 8, and 15 in a 28-day cycle), 2 mg/kg or 4 mg/kg LP-284 (administered intravenously on days 1, 8, and 15 in a 28-day cycle), 10 mg/kg rituximab (administered intravenously on days 1 and 15 in a 28-day cycle), 2 mg/kg LP-284 and 10 mg/kg rituximab in combination. Four mice were used in each treatment group. Tumor Growth Inhibition (TGI) was calculated as % TGI=(1−((Tt/T0)/(Ct/C0)))/(1−(C0/Ct))*100 where Tt=mean tumor volume of treated at time t, TO=mean tumor volume of treated at time 0, Ct=mean tumor volume of control at time t, CO=mean tumor volume of control at time 0.

B-cells (CD19+ or CD20+) = assay: B-cell reduction in immune-proficient mice, blood analyzed by flow cytometry; type: in vivo
Protocol: (§1) In this study, vehicle, LP-284 (4 mg/kg), and cyclophosphamide (25 mg/kg, a clinically relevant dose) were administered intravenously on days 1, 8, and 15, with three mice per treatment group. Blood samples were collected on Day 16 and analyzed by flow cytometry to quantify the B-cell populations.

[2] = Tolerability (body weight, gross necropsy) in immune-proficient mice; settings: 4 mg/kg intravenously days 1, 8, 15
Protocol: as §1

Compound | tumor growth inhibition (TGI) ([1]; 2 mg/kg LP-284 alone intravenously days 1, 8, 15) [%] | tumor growth inhibition (TGI) ([1]; 4 mg/kg LP-284 intravenously days 1, 8, 15) [%] | tumor volume ([1]; by day 24, versus vehicle (saline), intravenous) | reduction of B-cells (CD19+ or CD20+) (B-cells (CD19+ or CD20+); iv, 4 mg/kg, 384 h) | body weight [2] | gross necropsy findings [2] | tolerability [2] | reduction of B-cells (CD19+ or CD20+) (B-cells (CD19+ or CD20+); cyclophosphamide 25 mg/kg intravenously days 1, 8, 15, blood collected Day 16, immune-proficient mice)
CC1=C(CN(O)C(N)=O)C2=C(C)C3(CC3)[C@](C)(O)C(=O)C2=C1 [LP-284, (+)-hydroxyureamethyl acylfulvene] | 57 | 99 | significantly reduced tumor volume | approximately 30% | normal body weight | no abnormal findings | well-tolerated | 
O=P1(N(CCCl)CCCl)NCCCO1 (centres unmarked) [cyclophosphamide, reference compound] |  |  |  |  |  |  |  | comparable to the reduction achieved by cyclophosphamide
